The values that follow come from patent US8871765B2, “Substituted 4-(4-fluoro-3-(piperazine-1-carbonyl)benzyl)phthalazin-1(2H)-one derivatives as poly (ADP-ribose) polymerase-1 inhibitors” (Cadila Healthcare Limited, priority 2010, dated 2014).

For one assay, the system named is MCF-7 cell line. Nature of the assay: Potentiation of cell killing activity of Methyl Methane Sulphonate (MMS) in MCF-7 cells, MTT assay. Format: cell-based. The following applies: compound at 100 nM, cell survival without/with alkylating agent MMS. The procedure: Potentiation of cell killing activity of Methyl Methane Sulphonate (MMS) by selected compounds according to present invention was evaluated in MCF-7 cell line obtained from National Centre for Cell Science, Pune, by using MTT assay according to general protocol described in Methods in Molecular Biology, Volume-43, In vitro Toxicity Testing Protocol, Chapter-6, page: 137-149. Compounds were tested for PARP 1 activity based on percent cell survival of MCF-7 cells with alkylating agent MMS.
(Formazan colour is commonly taken as a measure of viable cells.)

For another assay, the target named is T1, PARP-1 (Homo sapiens, UniProt P09874).
T1 construct: purchased Trevigen
T1 sequence (P09874 whole entry): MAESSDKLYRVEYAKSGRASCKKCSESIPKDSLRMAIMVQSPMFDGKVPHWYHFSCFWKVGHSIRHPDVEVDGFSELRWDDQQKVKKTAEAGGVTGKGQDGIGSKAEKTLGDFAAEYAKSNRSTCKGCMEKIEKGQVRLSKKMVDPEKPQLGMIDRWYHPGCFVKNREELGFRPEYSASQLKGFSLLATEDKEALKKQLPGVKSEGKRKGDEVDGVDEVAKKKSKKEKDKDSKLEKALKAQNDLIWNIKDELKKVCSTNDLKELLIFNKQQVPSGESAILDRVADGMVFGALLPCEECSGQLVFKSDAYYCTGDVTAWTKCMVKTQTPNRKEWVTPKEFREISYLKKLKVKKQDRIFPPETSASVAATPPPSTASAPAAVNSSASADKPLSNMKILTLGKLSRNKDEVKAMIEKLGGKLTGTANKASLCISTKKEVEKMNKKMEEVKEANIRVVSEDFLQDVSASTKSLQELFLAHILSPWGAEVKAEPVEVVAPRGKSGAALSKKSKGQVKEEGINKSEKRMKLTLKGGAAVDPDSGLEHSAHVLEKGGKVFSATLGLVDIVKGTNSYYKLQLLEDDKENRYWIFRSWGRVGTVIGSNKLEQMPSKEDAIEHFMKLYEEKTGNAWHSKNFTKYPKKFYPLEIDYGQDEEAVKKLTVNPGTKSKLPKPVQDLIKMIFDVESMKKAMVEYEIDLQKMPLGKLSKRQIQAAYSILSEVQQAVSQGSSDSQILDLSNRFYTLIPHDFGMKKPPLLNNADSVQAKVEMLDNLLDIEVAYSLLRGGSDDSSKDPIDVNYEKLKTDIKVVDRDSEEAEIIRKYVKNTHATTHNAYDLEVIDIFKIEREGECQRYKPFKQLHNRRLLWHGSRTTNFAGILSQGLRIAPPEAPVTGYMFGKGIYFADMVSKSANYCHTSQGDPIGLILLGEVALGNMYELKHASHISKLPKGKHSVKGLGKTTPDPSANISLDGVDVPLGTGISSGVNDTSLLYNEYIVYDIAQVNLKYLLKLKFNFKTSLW
Nature of the assay: PARP-1 inhibitory activity, HT universal colorimetric PARP assay kit (Trevigen). The format is biochemical. The conditions noted are these: HT universal colorimetric PARP assay kit; read-out: PARP-1 activity in vitro IC50 nM). As for the experimental part:
The compounds were tested for PARP-1 inhibitory activity by using HT universal colorimetric PARP assay kit obtained from Trevigen, following manufacturer's protocol.

As for `CC(C)(Sc1ccccn1)C(=O)N1CCN(C(=O)c2cc(Cc3n[nH]c(=O)c4ccccc34)ccc2F)CC1` [Example 38, 4-(4-fluoro-3-(4-(2-methyl-2-(pyridin-2-ylthio)propanoyl)piperazine-1-carbonyl)benzyl)phthalazin-1(2H)-one], the “Survival affected by drug [(−MMS/+MMS)] at 100 nM” value with MCF-7 cell line was found to be 1.96. Besides, the 50% inhibitory concentration (IC50) (in general, the point on the concentration scale where inhibition reaches its midpoint) on PARP-1 was 5 nM.
